Measurements: patent US11191754B2, “Inhibitors of nucleotidyl transferases and uses in herpes and hepatitis viral infections therefor” (Saint Louis University, priority 2015, dated 2021)
Several values for one entry are separate records, joined by “and”; a condition that tells them apart may be missing. Identical values can stand only once. Like-named read-outs stand apart in the source and are kept apart here.

What was measured:
[1] = tested on: HSV-2; test: Anti-HSV-2 replication assay (virus yield by plaque assay on Vero cells); assay type: cell-based, herpes simplex virus 2 (HSV-2); settings: for HSV-2 inhibition category: semi-quantitative replication inhibition assay
Experimental: (§1) Vero cells were maintained in Dulbecco's modified Eagle's medium (DMEM) containing 3% newborn calf serum, 3% bovine growth serum, 2 mM L-glutamine and 100 IU/mL penicillin and 0.1 mg/mL streptomycin (P/S). HSV-1 #6 and HSV-2 #1 are de-identified clinical isolates from the Saint Louis University Hospital. Stocks were prepared after a single passage in cell culture and were titered by standard plaque assay (Knipe and Spang, 1982). Wild-type HSV-2 used in FIG. 3 was laboratory strain 333. […] Virus stocks were grown and titered on Vero cells (Morrison and Knipe, 1996).
(§2) Compounds to be screened were diluted in PBS supplemented to contain 2% newborn calf serum and 1% glutamine, and added in 100 μL volume to confluent cell monolayers in 24-well cluster plates. Immediately thereafter HSV-1 and HSV-2, diluted in the supplemented PBS medium, were added to the wells in 50 μl volume such that the final concentration of compound was 50 μM, 5 μM and 1 μM and the multiplicity of infection was 0.1. The plates were incubated at 37° C. for 1 hour and then virus-containing inoculum was removed and the wells were washed once in PBS. Compound, diluted to 50 μM, 5 μM and 1 μM in DMEM supplemented to contain 2% newborn calf serum and 1% each penicillin/streptomycin, was added at 0.5 mL/well. Plates were incubated at 37° C. an additional 23 hours, and then the plates were visually inspected through a phase contrast microscope for cytopathic effect, and for toxic effect. The entire contents of each well were collected by scraping. Samples were frozen at −80° C., and then subsequently thawed, sonicated, and infectious virus titer was determined by standard plaque assay on Vero cell monolayers. Because the compounds were dissolved at 10 mM in 100% DMSO, equivalent dilutions of DMSO were added to additional wells as a control for effects of the diluent. Each experiment was repeated once. EC50 values were determined as above except that serial dilutions of the compound to be tested were prepared starting at 50 μM. The inhibitory values were calculated by non-linear curve-fitting in GraphPad Prism.

[2] = Mouse liver microsome assay; assay type: in vitro ADME; settings: for CLint scaled at 1 μM: mouse, liver microsomes
Experimental: Microsomal incubations are run at a final P450 concentration of 0.25 μM. […] The mixture is prewarmed for 5 min at 37° C. To initiate the reaction a 12 mM stock of NAPDH (1.2 mM, final concentration) is added to the warmed microsomal mixture and aliquots are removed at 0, 5, 10, 20 and 30 min. […] Samples are vortexed and spun down at 3200 rpm for 5 min. The supernant is transferred to 96-deep well plates and run on LC/MS/MS.

[3] = tested on: TK-deficient mutant of HSV-2 strain 333, ΔTK-; test: Replication of TK-deficient HSV-2 mutant in Vero cells; assay type: cell-based, herpes simplex virus 2 (HSV-2); settings: 5 μM, 24 h (FIG. 3)
Experimental: Vero cells were maintained in Dulbecco's modified Eagle's medium (DMEM) containing 3% newborn calf serum, 3% bovine growth serum, 2 mM L-glutamine and 100 IU/mL penicillin and 0.1 mg/mL streptomycin (P/S). HSV-1 #6 and HSV-2 #1 are de-identified clinical isolates from the Saint Louis University Hospital. Stocks were prepared after a single passage in cell culture and were titered by standard plaque assay (Knipe and Spang, 1982). Wild-type HSV-2 used in FIG. 3 was laboratory strain 333. The TK-deficient mutant of HSV-2 strain 333, ΔTK-, contains a 180-bp KpnI-KpnI deletion in the UL23 open reading frame that abrogates TK activity (McDermott, et al, 1984). ΔTK—was the generous gift of Jim Smiley. Virus stocks were grown and titered on Vero cells (Morrison and Knipe, 1996).
ACV is a nucleoside analog prodrug that must be phosphorylated by the viral thymidine kinase (TK) for it to become a substrate for the viral DNA polymerase (Elion, et al., 1977). HSV TK-deficient mutants are therefore insensitive to ACV. […] Vero cells were infected with a laboratory strain of HSV-2 and an engineered TK-deficient mutant of the same strain. […] ACV 5 μM inhibited wild-type HSV-2 replication 100-fold, but it had little effect on the TK-mutant (FIG. 3).

[4] = tested on: HSV-1; test: Anti-HSV-1 replication assay (virus yield by plaque assay on Vero cells); assay type: cell-based, herpes simplex virus 1 (HSV-1); settings: for HSV-1 inhibition category: semi-quantitative replication inhibition assay
Experimental: as §1, §2

[5] = in vitro; assay type: cell-based; settings: African green monkey
Experimental: Qualitative assessments of cytotoxicity were done visually by inspecting the cells in the primary screening assays. For the quantitative assays, cells were plated in 96-well plates at 1.0×10^4 per well. The next day the compounds were added at 0.78 to 100 μM in a final concentration of 1% (v/v) DMSO, and the cells were incubated for 24 hours under conditions identical to those employed for the viral replication inhibition assays. Mitochondrial toxicity was measured by incubating the cells with 0.25 mg/mL thiazolyl blue tetrazolium bromide (MTT, SigmaAldrich Chemical Co.), the cultures were incubated for 60 min, metabolites were solubilized in acidic isopropanol, and absorbance was read at 570 nm. CC50 values were calculated by non-linear curve fitting using GraphPad Prism.
A quantitative toxicity measurement was conducted. Toxicity was assessed by measuring release of intracellular proteases into the culture medium due to cellular lysis. Cells were plated in 96-well plates at 1.0×10^4 per well. The next day compound was added in concentrations ranging from 0.78 to 100 μM in a final concentration of 1% (v/v) DMSO. The cells were incubated for 24 hours under conditions identical to those employed for the viral replication inhibition assays, and then […] according to the manufacturer's instructions. […]

[6] = 1 μM, Vero cells, moi 0.1, 24 h, relative to DMSO control
[7] = 5 μM, Vero cells, moi 0.1, 24 h, relative to DMSO control
[8] = 50 μM, Vero cells, moi 0.1, 24 h, relative to DMSO control

SMILES: Cc1cc(CC(C)CC(C)(C)C)n(O)c(=O)c1 (centres unmarked) [#191, Piroctone olamine]
- HSV-2 inhibition category ([1]; 1 μM): intermediate (1 to 3 log10 suppression, which equals 10- to 1,000-fold reduction)
- HSV-2 Log10 suppression 1 μM [1, 6]: 1.70 log10
- HSV-2 replication inhibition, fold ([1]; 5 μM): 39,000 fold
- HSV-2 inhibition category ([1]; 5 μM): strong (3 to 6 log10 suppression, or 1,000- to 1,000,000-fold reduction)
- suppression of replication of three primary clinical isolates of HSV-2 ([1]; 5 μM, Vero cells, moi 0.1, 24 h (FIG. 2)): > 4.7 log10
- HSV-2 Log10 suppression 5 μM [1, 7]: 4.59 log10 and 4.53 log10
- inhibition of wild-type HSV-2 ([1]; 5 μM, laboratory strain 333, Vero cells, 24 h (FIG. 3)): efficiently inhibited
- HSV-2 inhibition category ([1]; 50 μM): strong (3 to 6 log10 suppression, or 1,000- to 1,000,000-fold reduction)
- HSV-2 Log10 suppression 50 μM [1, 8]: 4.25 log10
- ER ([2]; extraction ratio, mouse liver microsomes): 0.09
- Non-P450 turn-over ([2]; mouse liver microsomes): No
- half-life at 1 μM ([2]; mouse liver microsomes, 1 μM compound, read-out: t ½): > 2 h
- CLint scaled at 1 μM ([2]; 1 μM compound, read-out: CL ‘hep): 8 mL/min/kg
- CLint scaled at 1 μM ([2]; 1 μM compound, read-out: CL’int): 9 mL/min/kg
- inhibition of TK-mutant HSV-2 [3]: efficiently inhibited
- HSV-1 inhibition category ([4]; 1 μM): intermediate (1 to 3 log10 suppression, which equals 10- to 1,000-fold reduction)
- HSV-1 Log10 suppression 1 μM [4, 6]: 2.71 log10
- HSV-1 replication inhibition, fold ([4]; 5 μM): 4,074 fold
- HSV-1 inhibition category ([4]; 5 μM): strong (3 to 6 log10 suppression, or 1,000- to 1,000,000-fold reduction)
- HSV-1 Log10 suppression 5 μM [4, 7]: 3.61 log10 and 3.53 log10
- HSV-1 inhibition category ([4]; 50 μM): strong (3 to 6 log10 suppression, or 1,000- to 1,000,000-fold reduction)
- HSV-1 Log10 suppression 50 μM [4, 8]: 3.85 log10
- CC50 at 24 h [5]: > 100 µM
